# Results from ChEMBL document CHEMBL1201862, “PubChem BioAssay data set” (2004).
# Calls of active or inactive are those of the source.
# Key:
# [1] = target: DNA dC->dU-editing enzyme APOBEC-3A (Homo sapiens, UniProt P31941); experiment: APOBEC3A DNA deaminase inhibitors, dose response, biochemical (AID 504722); type: functional
# [2] = target: DNA dC->dU-editing enzyme APOBEC-3G (Homo sapiens, UniProt Q9HC16); experiment: Dose Response confirmation of small molecule APOBEC3G DNA Deaminase Inhibitors via a fluorescence-based single-stranded DNA deaminase assay. [Related pubchem assays (depositor defined):AID493012, AID493028]; type: functional
# [3] = target: FAD-linked sulfhydryl oxidase ALR (Homo sapiens, UniProt P55789); experiment: inhibitors of human ALR sulfhydryl oxidase, dose response, biochemical, H2O2 detection, luminescence, cherry-pick (AID 493248)
# [4] = target: Voltage-dependent T-type calcium channel subunit alpha-1H (Homo sapiens, UniProt O95180); experiment: Cav3.2 T-type channel inhibitors, cell-based, synthetic library set 1, calcium flux (AID 493022); type: functional
# Beta-galactosidase = Beta-galactosidase (Escherichia coli, UniProt Q8VNN2); experiment: beta-galactosidase enzyme inhibitors and activators, dose response, artefact control for CCR6 antagonist project, biochemical, E. coli enzyme, set 3 (AID 504712); type: functional
# [5] = THP-1 cell cytotoxicity, dose response, cytotoxicity control for Vif-APOBEC3G degradation inhibitor project, THP-1 cells (AID 1117359); type: functional; settings: Human immunodeficiency virus 1, THP-1
# [6] = target: C-C chemokine receptor type 6 (Homo sapiens, UniProt P51684); experiment: CCR6 receptor antagonists, dose response, cell-based, luminescent beta-arrestin readout (AID 504728); type: functional
# X-box-binding protein 1 = X-box-binding protein 1 (Homo sapiens, UniProt P17861); type: functional, Cricetulus griseus;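 also: confirmatory dose-response counter-screen serving a CHOP assay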
# HEK293 [7] = experiment: cells; type: functional, cell-based; settings: Homo sapiens
# HEK293 [8] = experiment: cells; type: functional, cell-based; settings: Homo sapiens; remark: listed apart in the source
# [9] = target: Nucleotide-binding oligomerization domain-containing protein 2 (Homo sapiens, UniProt Q9HC29); experiment: NOD2 signaling inhibitors, cell-based, luminescence, uHTS, HEK293 (AID 1566); type: functional
# HEK293 [10] = experiment: cells; type: functional, cell-based; settings: Homo sapiens; remark: listed apart in the source
# [11] = C. albicans growth with fluconazole, confirmation, fluorescence, retest (AID 2467); type: functional, cell-based
# HEK293 [12] = experiment: NOD1 signaling inhibitors, primary screen, cell-based, luminescence, uHTS (AID 1578); type: functional; settings: Homo sapiens
# [13] = NIH-3T3 fibroblast cytotoxicity, dose response, cytotoxicity control, cell-based, fluorescence, Alamar Blue, secondary assay (AID 2327); type: functional;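 also: NIH-3T3 mouse fibroblasts cultured with fluconazole at 8 µg/mL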
# [14] = target: NACHT, LRR and PYD domains-containing protein 1 (Homo sapiens, UniProt Q9C000); experiment: NALP1 inhibitors in yeast, dose response, luminescent (AID 488860); type: functional
# [15] = target: T1, Microphthalmia-associated transcription factor (Homo sapiens, UniProt O75030); experiment: TRPM1 promoter luciferase signal decrease, dose response, MITF inhibitor project, cell-based, SK-MEL-5, cherry-picked, set 3 (AID 493073); type: functional
# T1 sequence (O75030 whole entry): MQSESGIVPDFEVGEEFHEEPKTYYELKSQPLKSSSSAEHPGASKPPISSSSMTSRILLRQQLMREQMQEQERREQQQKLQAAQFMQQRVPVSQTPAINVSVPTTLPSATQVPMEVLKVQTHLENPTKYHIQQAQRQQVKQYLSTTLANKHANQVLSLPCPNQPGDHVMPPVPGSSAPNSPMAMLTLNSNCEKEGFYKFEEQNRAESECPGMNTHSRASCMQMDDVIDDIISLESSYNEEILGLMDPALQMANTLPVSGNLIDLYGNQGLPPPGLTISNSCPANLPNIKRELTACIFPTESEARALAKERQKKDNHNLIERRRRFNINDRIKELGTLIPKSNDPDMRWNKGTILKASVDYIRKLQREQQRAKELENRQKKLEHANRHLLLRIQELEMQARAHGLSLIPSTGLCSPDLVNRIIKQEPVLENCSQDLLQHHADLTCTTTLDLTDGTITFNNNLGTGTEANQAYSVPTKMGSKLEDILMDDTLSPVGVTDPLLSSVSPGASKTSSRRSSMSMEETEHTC
# Saccharomyces cerevisiae = experiment: NALP1 inhibitor project selectivity study, Caspase-1/ASC signal blockade IC50 in S. cerevisiae (AID 488863); type: functional, organism-based
# HEK293 [16] = experiment: NOD2 signaling inhibitors in MDP-stimulated cells, cell-based, uHTS, luminescence (AID 2001); type: functional; settings: Homo sapiens
# [17] = target: T2, Replicative DNA helicase DnaB (Mycobacterium tuberculosis, UniProt P9WMR3); experiment: DnaB intein splicing inhibitors, dose response, biochemical, cell-free fluorescence (AID 449749); type: functional
# T2 sequence (P9WMR3 whole entry): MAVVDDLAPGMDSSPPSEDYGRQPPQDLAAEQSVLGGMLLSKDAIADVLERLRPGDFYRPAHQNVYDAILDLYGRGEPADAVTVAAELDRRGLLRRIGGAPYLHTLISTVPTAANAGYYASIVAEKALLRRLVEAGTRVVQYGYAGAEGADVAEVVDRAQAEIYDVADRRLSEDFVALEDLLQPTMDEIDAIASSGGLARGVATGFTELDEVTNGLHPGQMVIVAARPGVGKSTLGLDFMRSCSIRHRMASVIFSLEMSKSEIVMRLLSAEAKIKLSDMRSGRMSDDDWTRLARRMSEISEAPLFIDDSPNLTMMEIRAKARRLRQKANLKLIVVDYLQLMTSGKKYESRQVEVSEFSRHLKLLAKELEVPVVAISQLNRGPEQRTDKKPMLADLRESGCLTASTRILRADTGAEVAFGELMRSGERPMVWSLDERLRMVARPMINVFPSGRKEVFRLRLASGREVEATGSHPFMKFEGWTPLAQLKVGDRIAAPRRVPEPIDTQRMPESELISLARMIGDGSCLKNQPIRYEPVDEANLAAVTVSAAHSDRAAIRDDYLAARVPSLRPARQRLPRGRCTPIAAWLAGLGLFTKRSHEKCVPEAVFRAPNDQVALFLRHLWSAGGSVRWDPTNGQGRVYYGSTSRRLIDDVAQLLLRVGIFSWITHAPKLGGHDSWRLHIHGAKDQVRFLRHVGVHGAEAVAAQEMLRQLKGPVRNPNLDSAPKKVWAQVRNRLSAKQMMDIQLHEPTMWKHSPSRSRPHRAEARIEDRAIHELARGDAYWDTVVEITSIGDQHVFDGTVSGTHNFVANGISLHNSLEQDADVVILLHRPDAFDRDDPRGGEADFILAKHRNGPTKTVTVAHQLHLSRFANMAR
# Protein RecA = target: T3, Protein RecA (Mycobacterium tuberculosis, UniProt P9WHJ3); experiment: Fluorescence Cell-Free Homogeneous Dose Retest to Identify Inhibitors of RecA-Intein Splicing Activity. [Related pubchem assays (depositor defined):AID2097, AID2223, AID489010, AID492950]; type: functional
# T3 sequence (P9WHJ3 whole entry): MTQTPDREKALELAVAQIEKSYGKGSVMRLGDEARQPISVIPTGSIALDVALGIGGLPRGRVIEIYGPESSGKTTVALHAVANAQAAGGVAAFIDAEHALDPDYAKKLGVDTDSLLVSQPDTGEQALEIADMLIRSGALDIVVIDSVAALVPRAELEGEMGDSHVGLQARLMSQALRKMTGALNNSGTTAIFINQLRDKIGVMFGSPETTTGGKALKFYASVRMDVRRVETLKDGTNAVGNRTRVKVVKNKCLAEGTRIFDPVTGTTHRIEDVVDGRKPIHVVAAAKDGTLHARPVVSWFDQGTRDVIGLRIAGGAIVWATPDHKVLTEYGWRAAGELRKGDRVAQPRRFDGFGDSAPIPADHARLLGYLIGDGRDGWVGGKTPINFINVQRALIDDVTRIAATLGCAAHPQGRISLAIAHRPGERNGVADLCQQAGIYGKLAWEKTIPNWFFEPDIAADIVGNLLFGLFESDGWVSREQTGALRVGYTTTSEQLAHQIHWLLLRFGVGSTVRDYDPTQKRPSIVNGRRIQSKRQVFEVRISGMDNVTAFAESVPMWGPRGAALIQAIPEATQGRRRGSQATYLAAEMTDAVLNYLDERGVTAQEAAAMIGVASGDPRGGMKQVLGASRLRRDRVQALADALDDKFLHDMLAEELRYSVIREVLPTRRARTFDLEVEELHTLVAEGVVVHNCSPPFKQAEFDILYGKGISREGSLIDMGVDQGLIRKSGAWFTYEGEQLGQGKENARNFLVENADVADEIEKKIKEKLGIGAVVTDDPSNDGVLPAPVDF
# [18] = target: Neurotensin receptor type 1 (Homo sapiens, UniProt P30989); type: functional;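 also: Image-based confirmatory dose-response assay measuring agonist activity at NTR1; NTR1-expressing U2OS osteosarcoma cells imaged for beta-arrestin GFP spot formation; agonist potency where compounds increase beta-arrestin recruitment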
# [19] = target: G-protein coupled receptor 55 (Homo sapiens, UniProt Q9Y2T6); experiment: SAR Analysis of Selective Antagonists of GPR55 using an Image-Based Assay - Set 3. [Related pubchem assays (depositor defined):AID2058, AID2079]; type: functional
# [20] = target: G-protein coupled receptor 35 (Homo sapiens, UniProt Q9HC97); experiment: SAR analysis of Antagonists of the GPR35 Receptor using an Image-Based Assay - Set 5. [Related pubchem assays (depositor defined):AID2058, AID2079]; type: functional
# [21] = target: Cystic fibrosis transmembrane conductance regulator/Golgi-associated PDZ and coiled-coil motif-containing protein (Homo sapiens, UniProt P13569+Q9HD26); experiment: CAL PDZ peptide-binding inhibitors, dose response, biochemical, fluorescence polarization, Cerulean-tagged CAL PDZ, cherry-picks (AID 504773)
# [22] = target: Heat shock cognate 71 kDa protein (Homo sapiens, UniProt P11142); experiment: In Vitro Hsc70 Dose Response Fluorescence Polarization Assay. [Related pubchem assays: 1072 ]
# [23] = target: Glyceraldehyde-3-phosphate dehydrogenase (Homo sapiens, UniProt P04406)
# [24] = target: Heat shock 70 kDa protein 1A (Homo sapiens, UniProt P0DMV8); experiment: Hsp70 inhibitors, SAR follow-up, biochemical, fluorescence polarization (AID 1072)
# [25] = target: T4, Dual specificity protein phosphatase 6 (Rattus norvegicus, UniProt Q64346); type: functional
# T4 sequence (Q64346 whole entry): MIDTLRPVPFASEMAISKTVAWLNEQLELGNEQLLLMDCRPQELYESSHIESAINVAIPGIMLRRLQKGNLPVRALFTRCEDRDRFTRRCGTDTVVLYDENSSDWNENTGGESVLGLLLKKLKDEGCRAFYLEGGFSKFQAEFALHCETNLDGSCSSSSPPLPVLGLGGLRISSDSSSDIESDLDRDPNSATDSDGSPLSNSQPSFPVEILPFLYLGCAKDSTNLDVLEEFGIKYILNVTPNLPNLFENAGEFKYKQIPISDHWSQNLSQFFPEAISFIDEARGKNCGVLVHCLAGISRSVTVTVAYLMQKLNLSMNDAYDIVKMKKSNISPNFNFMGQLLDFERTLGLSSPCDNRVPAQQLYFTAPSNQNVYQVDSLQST
# [26] = target: T5, Tyrosine-protein phosphatase non-receptor type 7 (Homo sapiens, UniProt P35236); type: functional
# T5 sequence (P35236 whole entry): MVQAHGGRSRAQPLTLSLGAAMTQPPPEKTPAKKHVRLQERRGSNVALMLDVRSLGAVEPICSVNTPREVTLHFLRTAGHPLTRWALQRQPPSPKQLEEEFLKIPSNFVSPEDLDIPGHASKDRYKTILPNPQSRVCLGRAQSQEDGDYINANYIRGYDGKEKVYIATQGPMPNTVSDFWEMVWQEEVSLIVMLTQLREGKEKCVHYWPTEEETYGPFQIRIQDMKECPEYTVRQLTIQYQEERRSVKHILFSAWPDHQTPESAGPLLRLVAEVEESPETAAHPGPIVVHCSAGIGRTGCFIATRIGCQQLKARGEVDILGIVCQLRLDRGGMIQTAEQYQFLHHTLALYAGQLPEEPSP
# [27] = target: T4, Dual specificity protein phosphatase 6
# Chain of FAD-linked sulfhydryl oxidase ALR (P55789 whole entry): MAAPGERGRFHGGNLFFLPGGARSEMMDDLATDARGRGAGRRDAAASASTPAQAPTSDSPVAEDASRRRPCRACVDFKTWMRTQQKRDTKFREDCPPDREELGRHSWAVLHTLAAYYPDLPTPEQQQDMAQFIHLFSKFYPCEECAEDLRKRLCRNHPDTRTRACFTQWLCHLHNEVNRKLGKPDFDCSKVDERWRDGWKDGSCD
# Chain of Heat shock 70 kDa protein 1A (P0DMV8 whole entry): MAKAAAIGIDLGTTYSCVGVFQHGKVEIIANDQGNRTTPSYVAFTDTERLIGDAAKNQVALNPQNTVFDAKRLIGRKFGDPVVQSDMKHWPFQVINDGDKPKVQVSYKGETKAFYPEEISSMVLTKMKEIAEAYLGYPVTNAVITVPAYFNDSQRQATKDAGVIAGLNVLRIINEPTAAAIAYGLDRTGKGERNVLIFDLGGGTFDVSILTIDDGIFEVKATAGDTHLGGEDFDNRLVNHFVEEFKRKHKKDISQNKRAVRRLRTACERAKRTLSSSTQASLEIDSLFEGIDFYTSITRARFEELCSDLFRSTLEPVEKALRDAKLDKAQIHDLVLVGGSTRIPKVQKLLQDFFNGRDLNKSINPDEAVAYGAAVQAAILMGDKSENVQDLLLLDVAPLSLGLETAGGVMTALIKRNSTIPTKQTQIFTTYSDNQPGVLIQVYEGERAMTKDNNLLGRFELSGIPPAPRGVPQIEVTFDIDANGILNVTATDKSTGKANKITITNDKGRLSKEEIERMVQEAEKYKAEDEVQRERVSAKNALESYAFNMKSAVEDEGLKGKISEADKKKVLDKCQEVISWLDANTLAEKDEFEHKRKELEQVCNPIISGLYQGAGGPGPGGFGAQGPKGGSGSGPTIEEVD
# Chain of Neurotensin receptor type 1 (P30989 whole entry): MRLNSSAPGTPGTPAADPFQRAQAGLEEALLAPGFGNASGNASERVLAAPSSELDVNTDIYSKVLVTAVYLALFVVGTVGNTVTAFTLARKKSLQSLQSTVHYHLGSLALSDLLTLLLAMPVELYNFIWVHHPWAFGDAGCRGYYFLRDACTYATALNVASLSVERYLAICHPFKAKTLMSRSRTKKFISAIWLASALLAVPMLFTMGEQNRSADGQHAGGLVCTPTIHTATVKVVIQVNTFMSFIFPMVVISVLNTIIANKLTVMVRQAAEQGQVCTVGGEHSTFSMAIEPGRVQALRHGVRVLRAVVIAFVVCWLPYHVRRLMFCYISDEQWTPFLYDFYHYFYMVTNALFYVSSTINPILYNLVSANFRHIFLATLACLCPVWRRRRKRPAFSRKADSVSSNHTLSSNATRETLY
# Chain of NACHT, LRR and PYD domains-containing protein 1 (Q9C000 1-1212 limits assumed): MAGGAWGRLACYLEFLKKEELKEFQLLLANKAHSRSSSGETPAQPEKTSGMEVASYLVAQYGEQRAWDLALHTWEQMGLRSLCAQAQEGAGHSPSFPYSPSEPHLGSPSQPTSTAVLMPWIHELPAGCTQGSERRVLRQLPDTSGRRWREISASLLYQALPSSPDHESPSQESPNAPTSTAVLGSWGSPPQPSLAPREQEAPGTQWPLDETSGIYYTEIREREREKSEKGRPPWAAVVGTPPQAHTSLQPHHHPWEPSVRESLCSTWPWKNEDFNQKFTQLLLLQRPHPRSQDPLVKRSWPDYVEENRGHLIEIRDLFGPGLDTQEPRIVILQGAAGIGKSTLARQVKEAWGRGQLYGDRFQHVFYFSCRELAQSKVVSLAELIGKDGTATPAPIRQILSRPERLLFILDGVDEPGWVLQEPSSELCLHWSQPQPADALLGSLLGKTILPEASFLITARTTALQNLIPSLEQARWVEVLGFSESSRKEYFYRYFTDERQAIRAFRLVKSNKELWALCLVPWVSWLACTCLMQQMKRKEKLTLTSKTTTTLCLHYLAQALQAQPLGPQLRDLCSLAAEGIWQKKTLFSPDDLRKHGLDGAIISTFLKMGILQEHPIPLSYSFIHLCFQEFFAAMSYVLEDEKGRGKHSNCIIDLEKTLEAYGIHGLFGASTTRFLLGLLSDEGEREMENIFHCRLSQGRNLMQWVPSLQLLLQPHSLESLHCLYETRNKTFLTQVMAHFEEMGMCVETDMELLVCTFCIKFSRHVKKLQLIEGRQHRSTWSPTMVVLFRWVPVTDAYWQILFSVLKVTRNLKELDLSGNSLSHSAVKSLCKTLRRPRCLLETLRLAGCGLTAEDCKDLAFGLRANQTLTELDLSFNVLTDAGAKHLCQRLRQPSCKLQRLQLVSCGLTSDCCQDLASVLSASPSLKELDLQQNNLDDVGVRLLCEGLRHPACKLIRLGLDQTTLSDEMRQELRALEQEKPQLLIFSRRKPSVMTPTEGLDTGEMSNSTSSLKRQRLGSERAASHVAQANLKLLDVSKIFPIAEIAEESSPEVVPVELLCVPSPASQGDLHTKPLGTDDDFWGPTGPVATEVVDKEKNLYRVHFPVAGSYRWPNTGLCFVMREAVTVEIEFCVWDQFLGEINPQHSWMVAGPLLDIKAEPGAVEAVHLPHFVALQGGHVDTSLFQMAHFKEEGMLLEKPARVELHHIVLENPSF
# Chain of NACHT, LRR and PYD domains-containing protein 1 (Q9C000 1213-1473 limits assumed): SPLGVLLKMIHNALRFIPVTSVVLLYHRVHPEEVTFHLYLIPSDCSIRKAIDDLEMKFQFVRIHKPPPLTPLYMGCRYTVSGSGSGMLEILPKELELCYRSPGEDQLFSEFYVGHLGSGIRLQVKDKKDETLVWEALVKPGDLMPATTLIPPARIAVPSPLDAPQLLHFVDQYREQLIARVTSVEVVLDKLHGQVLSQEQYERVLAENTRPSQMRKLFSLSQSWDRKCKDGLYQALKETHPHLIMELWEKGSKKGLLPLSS
# Chain of Cystic fibrosis transmembrane conductance regulator/Golgi-associated PDZ and coiled-coil motif-containing protein (P13569 whole entry, other chains not shown): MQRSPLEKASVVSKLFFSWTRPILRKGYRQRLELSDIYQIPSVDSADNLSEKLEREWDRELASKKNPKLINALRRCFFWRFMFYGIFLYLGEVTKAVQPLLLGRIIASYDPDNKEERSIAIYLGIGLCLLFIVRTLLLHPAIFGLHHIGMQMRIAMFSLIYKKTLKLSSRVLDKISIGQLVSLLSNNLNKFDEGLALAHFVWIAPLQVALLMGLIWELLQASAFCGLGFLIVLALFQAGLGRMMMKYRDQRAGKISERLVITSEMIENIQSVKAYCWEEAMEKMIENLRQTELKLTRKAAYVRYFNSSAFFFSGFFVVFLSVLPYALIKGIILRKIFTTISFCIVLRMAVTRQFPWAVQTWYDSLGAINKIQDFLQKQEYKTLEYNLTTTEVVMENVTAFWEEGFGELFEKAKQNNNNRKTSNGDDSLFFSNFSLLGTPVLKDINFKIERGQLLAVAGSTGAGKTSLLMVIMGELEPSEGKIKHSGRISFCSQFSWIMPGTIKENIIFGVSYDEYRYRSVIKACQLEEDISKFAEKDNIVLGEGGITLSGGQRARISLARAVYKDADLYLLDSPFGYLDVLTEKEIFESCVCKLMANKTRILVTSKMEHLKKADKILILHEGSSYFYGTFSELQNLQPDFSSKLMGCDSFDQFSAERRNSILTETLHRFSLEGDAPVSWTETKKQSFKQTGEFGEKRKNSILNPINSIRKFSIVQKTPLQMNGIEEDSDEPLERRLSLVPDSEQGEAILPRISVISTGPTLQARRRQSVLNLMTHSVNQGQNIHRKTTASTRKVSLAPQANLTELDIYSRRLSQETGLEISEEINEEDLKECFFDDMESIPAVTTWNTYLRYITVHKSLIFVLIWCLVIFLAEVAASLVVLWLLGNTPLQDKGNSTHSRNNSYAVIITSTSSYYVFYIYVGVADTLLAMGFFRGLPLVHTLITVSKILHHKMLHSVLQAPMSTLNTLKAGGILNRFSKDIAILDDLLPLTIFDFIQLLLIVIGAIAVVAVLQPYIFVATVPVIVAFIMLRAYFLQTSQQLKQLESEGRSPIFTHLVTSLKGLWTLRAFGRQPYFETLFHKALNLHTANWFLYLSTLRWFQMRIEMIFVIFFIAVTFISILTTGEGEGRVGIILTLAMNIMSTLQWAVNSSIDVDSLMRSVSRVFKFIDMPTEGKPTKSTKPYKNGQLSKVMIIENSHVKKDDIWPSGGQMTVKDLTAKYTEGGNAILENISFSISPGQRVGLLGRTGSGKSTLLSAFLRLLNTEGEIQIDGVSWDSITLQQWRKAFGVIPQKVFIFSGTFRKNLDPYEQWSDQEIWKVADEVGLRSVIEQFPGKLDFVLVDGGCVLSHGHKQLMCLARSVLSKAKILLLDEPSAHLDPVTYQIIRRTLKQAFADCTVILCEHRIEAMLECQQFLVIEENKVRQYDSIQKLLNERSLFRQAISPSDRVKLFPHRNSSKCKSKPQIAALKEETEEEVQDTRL
# Chain of X-box-binding protein 1 (P17861 whole entry): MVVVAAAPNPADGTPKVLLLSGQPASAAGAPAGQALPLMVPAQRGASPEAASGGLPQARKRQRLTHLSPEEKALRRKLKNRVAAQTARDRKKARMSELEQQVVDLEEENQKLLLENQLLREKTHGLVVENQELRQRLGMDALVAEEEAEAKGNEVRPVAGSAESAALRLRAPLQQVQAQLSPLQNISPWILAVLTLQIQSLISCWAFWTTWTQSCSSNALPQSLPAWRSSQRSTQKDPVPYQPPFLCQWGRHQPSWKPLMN
# Chain of DNA dC->dU-editing enzyme APOBEC-3G (Q9HC16 whole entry): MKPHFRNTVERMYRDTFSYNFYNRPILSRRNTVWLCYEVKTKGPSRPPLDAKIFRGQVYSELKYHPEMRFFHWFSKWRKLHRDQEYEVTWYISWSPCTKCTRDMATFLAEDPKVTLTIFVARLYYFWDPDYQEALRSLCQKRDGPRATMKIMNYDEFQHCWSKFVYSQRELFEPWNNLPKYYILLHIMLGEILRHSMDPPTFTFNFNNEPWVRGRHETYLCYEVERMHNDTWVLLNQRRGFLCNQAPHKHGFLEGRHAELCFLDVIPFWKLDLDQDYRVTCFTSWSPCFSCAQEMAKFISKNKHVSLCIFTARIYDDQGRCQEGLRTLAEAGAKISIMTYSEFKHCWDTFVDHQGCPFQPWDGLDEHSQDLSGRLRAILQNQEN
structure (smiles),measurement,setting,value
S=c1[nH]nc(-c2ccco2)n1C1CCCCC1,IC50,[1],> 100 µM (inactive)
same,IC50,[2],4.08 µM (active)
same,AC50,[3],5.64 µM (active)
CC(Oc1ccccc1)C(=O)Nc1nnc(-c2ccc3c(c2)CCCC3)o1 (configuration not stated),EC50,[4],1.3 µM (active)
CC(=O)OC(C)C1C2=C(C(=O)CC1(C)O)C(=O)c1c(ccc(-c3ccc4c(c3O)C(=O)C3=C(C4=O)C(C(C)OC(C)=O)C(C)(O)CC3=O)c1O)C2=O (configuration not stated),IC50,Beta-galactosidase,> 66.6 µM (inactive)
same,CC50,[5],19.3 µM (active)
same,IC50,[6],> 66.6 µM (inactive)
CNc1nc(Sc2cccc(C(F)(F)F)c2)cc(C(F)(F)F)n1,Absolute IC50 (XBP1),X-box-binding protein 1,10 µM
Nc1ccc(Oc2cccc(Oc3ccc(N)cc3)c2)cc1,IC50,HEK293 [7],1.61 µM (active)
same,IC50,HEK293 [8],> 20 µM (inactive)
same,EC50,[9],1.85 µM (active)
same,IC50,HEK293 [10],19.9 µM (active)
same,EC50,[11],> 38 µM (not active)
same,EC50,HEK293 [12],5.94 µM (active)
same,EC50,[13],> 150 µM (inactive)
same,IC50,[14],15.3 µM (active)
same,AC50,[15],1.1 µM (active)
same,IC50,Saccharomyces cerevisiae,10.2 µM (active)
same,AC50,[3],0.677 µM (active)
same,IC50,HEK293 [16],3.05 µM (active)
CSc1nnc(NC(=O)C23CC4CC(CC(C4)C2)C3)s1,AC50,[17],> 380 µM (inactive)
same,EC50,Protein RecA,> 380 µM (inactive)
same,EC50,[18],8.21 µM (active)
COC(=O)c1cnn(-c2ccc(F)cc2F)c1/C=N/NC(=S)Nc1ccccc1,IC50,[19],> 32 µM (inactive)
same,IC50,[20],0.379 µM (active)
Nc1ncnc2c1C(c1ccccc1)c1c(ccc3ccccc13)O2 (configuration not stated),AC50,[21],11.2 µM (active)
O=C(Oc1ccc2ccccc2c1)c1ccc2c(c1)C1C=CCC1C(C(=O)O)N2 (configuration not stated),IC50,[22],95.2 µM (active)
same,IC50,[23],76.8 µM (active)
same,IC50,[24],43.9 µM (active)
same,IC50,[25],24.7 µM (active)
same,IC50,[26],2.04 µM (active)
same,IC50,[27],20.3 µM (active)
